These molecules were tested against CDK2/Cyclin E1 (Homo sapiens (Human), UniProt P24941) (assay: biochemical). Conditions: CDK2_Ki (nM), phosphorylated CDK2/Cyclin E1, 150 μM ATP, Morrison tight-binding fit.
Description: The assay was initiated with the addition of ATP, following a fifteen minutes pre-incubation of enzyme and inhibitor at room temperature in the reaction mixture. The reaction was stopped after 45 minutes at room temperature by the addition of 50 μL of 80 mM EDTA, pH 7.5.

Row | SMILES | Ki
1 | CN(C)S(=O)(=O)N1CCC(Nc2ncc3cc(CCO)c(=O)n(C4CCCC4)c3n2)CC1 [Example 27, 4-{[8-cyclopentyl-6-(2-hydroxyethyl)-7-oxo-7,8-dihydropyrido[2,3-d]pyrimidin-2-yl]amino}-N,N-dimethylpiperidine-1-sulfonamide] | 3.85 nM
2 | CNS(=O)(=O)N1CCC(Nc2ncc3cc(C)c(=O)n([C@H]4CCC[C@H]4C)c3n2)CC1 [Example 43, N-methyl-4-({6-methyl-8-[(1S,2R)-2-methylcyclopentyl]-7-oxo-7,8-dihydropyrido[2,3-d]pyrimidin-2-yl}amino)piperidine-1-sulfonamide] | 1.56 nM
3 | C[C@@]1(O)CCC[C@H]1n1c(=O)ccc2cnc(NC3CCN(S(=O)(=O)C4CCS(=O)(=O)C4)CC3)nc21 (single isomer, unassigned; isomer b) [Example 71] | 0.25 nM
4 | CS(=O)(=O)N1CC[C@@H](Nc2ncc3cc(CC(N)=O)c(=O)n(C4CCCC4)c3n2)[C@H](F)C1 (single isomer, unassigned) [Example 161, (+)-2-(8-cyclopentyl-2-{[(3S*,4S*)-3-fluoro-1-(methylsulfonyl)piperidin-4-yl]amino}-7-oxo-7,8-dihydropyrido[2,3-d]pyrimidin-6-yl)acetamide] | 135 nM
5 | COCCc1cc2cnc(N[C@@H]3CCN(S(C)(=O)=O)C[C@H]3F)nc2n(C2CCCC2)c1=O (single isomer, unassigned) [Example 159, (+)-8-cyclopentyl-2-{[(3S*,4S*)-3-fluoro-1-(methylsulfonyl)piperidin-4-yl]amino}-6-(2-methoxyethyl)pyrido[2,3-d]pyrimidin-7(8H)-one] | 95.2 nM
6 | Cc1cc2cnc(NC3CCN(S(=O)(=O)N(C)C)CC3)nc2n(C2CCCC2)c1=O [Example 24, 4-[(8-cyclopentyl-6-methyl-7-oxo-7,8-dihydropyrido[2,3-d]pyrimidin-2-yl)amino]-N,N-dimethylpiperidine-1-sulfonamide] | 1.59 nM
7 | CS(=O)(=O)N1CCC(Nc2ncc3cc(CC(F)F)c(=O)n(C4CCCC4)c3n2)CC1 [Example 149, 8-cyclopentyl-6-(2,2-difluoroethyl)-2-{[1-(methylsulfonyl)piperidin-4-yl]amino}pyrido[2,3-d]pyrimidin-7(8H)-one] | 2.29 nM
8 | C[C@]1(O)CCC[C@@H]1n1c(=O)ccc2cnc(NC3CCN(S(=O)(=O)NC[C@@H]4CCCO4)CC3)nc21 (single isomer, unassigned) [Example 63, (+)-4-({8-[(1R*,2R*)-2-hydroxy-2-methylcyclopentyl]-7-oxo-7,8-dihydropyrido[2,3-d]pyrimidin-2-yl}amino)-N-[(2S)-tetrahydrofuran-2-ylmethyl]piperidine-1-sulfonamide] | 4.51 nM
9 | Cc1cc2cnc(NC3CCN(S(=O)(=O)NC[C@H]4CCCO4)CC3)nc2n([C@@H]2CCC[C@@]2(C)O)c1=O (single isomer, unassigned) [Example 102, (−)-4-({8-[(1R*,2R*)-2-hydroxy-2-methylcyclopentyl]-6-methyl-7-oxo-7,8-dihydropyrido[2,3-d]pyrimidin-2-yl}amino)-N-[(2H)-tetrahydrofuran-2-ylmethyl]piperidine-1-sulfonamide] | 0.24 nM
10 | CS(=O)(=O)N1CC[C@@H](Nc2ncc3cc(CCO)c(=O)n(C4CCCC4)c3n2)[C@H](F)C1 (single isomer, unassigned) [Example 157, (+)-8-cyclopentyl-2-{[(3S*,4S*)-3-fluoro-1-(methylsulfonyl)piperidin-4-yl]amino}-6-(2-hydroxyethyl)pyrido[2,3-d]pyrimidin-7(8H)-one] | 36 nM
11 | CNS(=O)(=O)N1CCC(Nc2ncc3cc(C)c(=O)n([C@H]4CCC[C@]4(C)O)c3n2)CC1 (single isomer, unassigned) [Example 95, (+)-4-({8-[(1R*,2R*)-2-hydroxy-2-methylcyclopentyl]-6-methyl-7-oxo-7,8-dihydropyrido[2,3-d]pyrimidin-2-yl}amino)-N-methylpiperidine-1-sulfonamide] | 1.39 nM
12 | C[C@]1(O)CCC[C@@H]1n1c(=O)ccc2cnc(NC3CCN(S(=O)(=O)NC[C@H]4CCCO4)CC3)nc21 (single isomer, unassigned) [Example 65, (+)-4-({8-[(1R*,2R*)-2-hydroxy-2-methylcyclopentyl]-7-oxo-7,8-dihydropyrido[2,3-d]pyrimidin-2-yl}amino)-N-[(2R)-tetrahydrofuran-2-ylmethyl]piperidine-1-sulfonamide] | 4.85 nM
13 | C=Cc1cc2cnc(NC3CCN(S(C)(=O)=O)CC3)nc2n(C2CCCC2)c1=O [Example 138, 8-cyclopentyl-6-ethenyl-2-{[1-(methylsulfonyl)piperidin-4-yl]amino}pyrido[2,3-d]pyrimidin-7(8H)-one] | 0.87 nM
14 | C=CCc1cc2cnc(NC3CCN(S(C)(=O)=O)CC3)nc2n(C2CCCC2)c1=O [Example 139, 8-cyclopentyl-2-{[1-(methylsulfonyl)piperidin-4-yl]amino}-6-(prop-2-en-1-yl)pyrido[2,3-d]pyrimidin-7(8H)-one] | 4.05 nM
15 | Cc1cc2cnc(NC3CCN(S(=O)(=O)NC[C@@H]4CCCO4)CC3)nc2n([C@H]2CCC[C@]2(C)O)c1=O (single isomer, unassigned) [Example 101, (+)-4-({8-[(1R*,2R*)-2-hydroxy-2-methylcyclopentyl]-6-methyl-7-oxo-7,8-dihydropyrido[2,3-d]pyrimidin-2-yl}amino)-N-[(2S)-tetrahydrofuran-2-ylmethyl]piperidine-1-sulfonamide] | 3.59 nM
16 | Cc1cc2cnc(NC3CCN(S(=O)(=O)C(F)F)CC3)nc2n(C2CCCC2)c1=O [Example 26, 8-cyclopentyl-2-({1-[(difluoromethyl)sulfonyl]piperidin-4-yl}amino)-6-methylpyrido[2,3-d]pyrimidin-7(8H)-one] | 3.84 nM
17 | Cc1cc2cnc(NC3CCN(S(=O)(=O)NC[C@@H]4CCCO4)CC3)nc2n([C@@H]2CCC[C@@]2(C)O)c1=O (single isomer, unassigned) [Example 100, (−)-4-({8-[(1R*,2R*)-2-hydroxy-2-methylcyclopentyl]-6-methyl-7-oxo-7,8-dihydropyrido[2,3-d]pyrimidin-2-yl}amino)-N-[(2S)-tetrahydrofuran-2-ylmethyl]piperidine-1-sulfonamide] | 0.27 nM
18 | Cc1cc2cnc(NC3CCN(S(=O)(=O)NC[C@H]4CCCO4)CC3)nc2n([C@H]2CCC[C@]2(C)O)c1=O (single isomer, unassigned) [Example 103, (+)-4-({8-[(1R*,2R*)-2-hydroxy-2-methylcyclopentyl]-6-methyl-7-oxo-7,8-dihydropyrido[2,3-d]pyrimidin-2-yl}amino)-N-[(2R)-tetrahydrofuran-2-ylmethyl]piperidine-1-sulfonamide] | 3.46 nM
19 | C[C@@]1(O)CCCC1n1c(=O)ccc2cnc(NC3CCN(S(=O)(=O)NC[C@H]4CCCO4)CC3)nc21 (single isomer, unassigned; (-)) [Example 64, (−)-4-({8-[(1R*,2R*)-2-hydroxy-2-methylcyclopentyl]-7-oxo-7,8-dihydropyrido[2,3-d]pyrimidin-2-yl}amino)-N-[(2R)-tetrahydrofuran-2-ylmethyl]piperidine-1-sulfonamide] | 0.35 nM

Results, then the molecule that gave them:

Row | Ki | SMILES
20 | 5.05 nM | C[C@@H]1[C@H](O)CC[C@@H]1n1c(=O)ccc2cnc(NC3CCN(S(C)(=O)=O)CC3)nc21 (single isomer, unassigned) [Example 207, (+)-8-[(1R*,2R*,3S*)-3-hydroxy-2-methylcyclopentyl]-2-{[1-(methylsulfonyl)piperidin-4-yl]amino}pyrido[2,3-d]pyrimidin-7(8H)-one]
21 | 42.6 nM | Cc1cc2cnc(NC3CCN(S(C)(=O)=O)CC3)nc2n([C@H]2CCC[C@H](O)C2)c1=O (single isomer, unassigned) [Example 33, (−)-8-[(1R*,3R*)-3-hydroxycyclohexyl]-6-methyl-2-{[1-(methylsulfonyl)piperidin-4-yl]amino}pyrido[2,3-d]pyrimidin-7(8H)-one]
22 | 4.66 nM | CNS(=O)(=O)N1CCC(Nc2ncc3cc(C)c(=O)n([C@@H]4CCC[C@H]4O)c3n2)CC1 [Example 55, 4-({8-[(1R,2R)-2-hydroxycyclopentyl]-6-methyl-7-oxo-7,8-dihydropyrido[2,3-d]pyrimidin-2-yl}amino)-N-methylpiperidine-1-sulfonamide]
23 | 12.4 nM | C[C@@H]1[C@H](n2c(=O)ccc3cnc(NC4CCN(S(C)(=O)=O)CC4)nc32)CC[C@@H]1O (single isomer, unassigned) [Example 208, (−)-8-[(1R*,2R*,3S*)-3-hydroxy-2-methylcyclopentyl]-2-{[1-(methylsulfonyl)piperidin-4-yl]amino}pyrido[2,3-d]pyrimidin-7(8H)-one]
24 | 2.5 nM | O=c1ccc2cnc(NC3CCN(S(=O)(=O)C(F)F)CC3)nc2n1C1CCCC1 [Example 14, 8-cyclopentyl-2-({1-[(difluoromethyl)sulfonyl]piperidin-4-yl}amino)pyrido[2,3-d]pyrimidin-7(8H)-one]
25 | 1.28 nM | C[C@@H]1CCC[C@@H]1n1c(=O)c(Cl)cc2cnc(NC3CCN(S(C)(=O)=O)CC3)nc21 [Example 39, 6-chloro-8-[(1S,2R)-2-methylcyclopentyl]-2-{[1-(methylsulfonyl)piperidin-4-yl]amino}pyrido[2,3-d]pyrimidin-7(8H)-one]
26 | 1.44 nM | CS(=O)(=O)N1CCC(Nc2ncc3ccc(=O)n([C@@H]4CC[C@@H](O)C4)c3n2)CC1 (single isomer, unassigned) [Example 54, (−)-8-[(1R*,3R*)-3-hydroxycyclopentyl]-2-{[1-(methylsulfonyl)piperidin-4-yl]amino}pyrido[2,3-d]pyrimidin-7(8H)-one]
27 | 5.21 nM | CNS(=O)(=O)N1CCC(Nc2ncc3ccc(=O)n([C@H]4CCC[C@]4(C)O)c3n2)CC1 (single isomer, unassigned) [Example 57, (+)-4-({8-[(1R*,2R*)-2-hydroxy-2-methylcyclopentyl]-7-oxo-7,8-dihydropyrido[2,3-d]pyrimidin-2-yl}amino)-N-methylpiperidine-1-sulfonamide]
28 | 1.48 nM | C[C@H]1CC[C@@H](O)C[C@@H]1n1c(=O)ccc2cnc(NC3CCN(S(C)(=O)=O)CC3)nc21 [Example 216, 8-[(1S,2S,5R)-5-hydroxy-2-methylcyclohexyl]-2-{[1-(methylsulfonyl)piperidin-4-yl]amino}pyrido[2,3-d]pyrimidin-7(8H)-one]

Reference: patent US10233188B2, “CDK2/4/6 inhibitors” (priority 2016, dated 2019)
